Data reported in patent US20150125889A1, “IN VITRO DETECTION OF MICROORGANISMS WITH AZOREDUCTASE ACTIVITY” (BIOMÉRIEUX, priority 2012, published 2015).

Tests used:
Experiment in all cases: Reduction of azo substrates over 24 hours at 35° C., microtitration plate (Example 1)
Format in all cases: cell-based
Candida albicans = tested on: Candida albicans; parameters: key to RED (substrate reduced or not): RED indicates whether the substrate is reduced (Y) or not (N); RED indicates whether the substrate is reduced (Y) or not (N); key to Co (growth, absorbance at 660 nm) / Decol (substrate decolourized, decrease in absorbance) / Fluo (fluorescence multiplied by 2 relative to substrate-free control): The symbol “+” means good growth/decolourization/significant increase in fluorescence; The symbol “+/−” means difficult growth; The symbol “−” means that there is no growth/decolourization/significant increase in fluorescence; conditions: substrate 35 mg/l
Experimental: (§1) Reduction of the “azo” function of the substrates listed in Table I by the species listed in Table II, each species being represented by a strain, is tested in a microtitration plate.
(§2) The reaction medium consists of: • Trypcase soya broth • Substrate 35 mg/l • 0.5 MacFarland inoculum
(§3) The reduction of the substrate and the growth of the microorganisms are monitored using an Infinite® M200 Tecan microplate reader at 35° C. over 24 hours.
(§4) The growth is monitored by the absorbance at 660 nm and the reduction of the substrates by absorbance and fluorescence at the specific wavelengths indicated in Table III.
(§5) The substrate is considered as reduced by the microorganisms when the substrate is decolourized (monitored by the decrease in absorbance) (Decol) and/or when the fluorescence of the substrate is multiplied by 2 relative to the base fluorescence of a substrate-free control (Fluo). The growth is indicated by Co. The symbol “+” means good growth/decolourization/significant increase in fluorescence. The symbol “+/−” means difficult growth. The symbol “−” means that there is no growth/decolourization/significant increase in fluorescence. RED indicates whether the substrate is reduced (Y) or not (N).

Cronobacter muytjensii = tested on: Cronobacter muytjensii; parameters: key to RED (substrate reduced or not): RED indicates whether the substrate is reduced (Y) or not (N); RED indicates whether the substrate is reduced (Y) or not (N); key to Co (growth, absorbance at 660 nm) / Decol (substrate decolourized, decrease in absorbance) / Fluo (fluorescence multiplied by 2 relative to substrate-free control): The symbol “+” means good growth/decolourization/significant increase in fluorescence; The symbol “+/−” means difficult growth; The symbol “−” means that there is no growth/decolourization/significant increase in fluorescence; conditions: E. muytjensii, substrate 35 mg/l
Experimental: as §1, §2, §3, §4, §5

Escherichia coli = tested on: Escherichia coli; parameters: key to RED (substrate reduced or not): RED indicates whether the substrate is reduced (Y) or not (N); RED indicates whether the substrate is reduced (Y) or not (N); key to Co (growth, absorbance at 660 nm) / Decol (substrate decolourized, decrease in absorbance) / Fluo (fluorescence multiplied by 2 relative to substrate-free control): The symbol “+” means good growth/decolourization/significant increase in fluorescence; The symbol “+/−” means difficult growth; The symbol “−” means that there is no growth/decolourization/significant increase in fluorescence; conditions: E. coli, substrate 35 mg/l
Experimental: as §1, §2, §3, §4, §5

Geotrichum candidum = tested on: Geotrichum candidum; parameters: key to RED (substrate reduced or not): RED indicates whether the substrate is reduced (Y) or not (N); RED indicates whether the substrate is reduced (Y) or not (N); key to Co (growth, absorbance at 660 nm) / Decol (substrate decolourized, decrease in absorbance) / Fluo (fluorescence multiplied by 2 relative to substrate-free control): The symbol “+” means good growth/decolourization/significant increase in fluorescence; The symbol “+/−” means difficult growth; The symbol “−” means that there is no growth/decolourization/significant increase in fluorescence; conditions: G. candidum, substrate 35 mg/l
Experimental: as §1, §2, §3, §4, §5

Kocuria rosea = tested on: Kocuria rosea; parameters: key to RED (substrate reduced or not): RED indicates whether the substrate is reduced (Y) or not (N); RED indicates whether the substrate is reduced (Y) or not (N); key to Co (growth, absorbance at 660 nm) / Decol (substrate decolourized, decrease in absorbance) / Fluo (fluorescence multiplied by 2 relative to substrate-free control): The symbol “+” means good growth/decolourization/significant increase in fluorescence; The symbol “+/−” means difficult growth; The symbol “−” means that there is no growth/decolourization/significant increase in fluorescence; conditions: K. rosea, substrate 35 mg/l
Experimental: as §1, §2, §3, §4, §5

Pseudomonas aeruginosa = tested on: Pseudomonas aeruginosa; parameters: key to RED (substrate reduced or not): RED indicates whether the substrate is reduced (Y) or not (N); RED indicates whether the substrate is reduced (Y) or not (N); key to Co (growth, absorbance at 660 nm) / Decol (substrate decolourized, decrease in absorbance) / Fluo (fluorescence multiplied by 2 relative to substrate-free control): The symbol “+” means good growth/decolourization/significant increase in fluorescence; The symbol “+/−” means difficult growth; The symbol “−” means that there is no growth/decolourization/significant increase in fluorescence; conditions: P. aeruginosa, substrate 35 mg/l
Experimental: as §1, §2, §3, §4, §5

Staphylococcus aureus = tested on: Staphylococcus aureus; parameters: key to RED (substrate reduced or not): RED indicates whether the substrate is reduced (Y) or not (N); RED indicates whether the substrate is reduced (Y) or not (N); key to Co (growth, absorbance at 660 nm) / Decol (substrate decolourized, decrease in absorbance) / Fluo (fluorescence multiplied by 2 relative to substrate-free control): The symbol “+” means good growth/decolourization/significant increase in fluorescence; The symbol “+/−” means difficult growth; The symbol “−” means that there is no growth/decolourization/significant increase in fluorescence; conditions: S. aureus, substrate 35 mg/l
Experimental: as §1, §2, §3, §4, §5

[1] = tested on: Staphylococcus epidermidis; parameters: key to RED (substrate reduced or not): RED indicates whether the substrate is reduced (Y) or not (N); RED indicates whether the substrate is reduced (Y) or not (N); key to Co (growth, absorbance at 660 nm) / Decol (substrate decolourized, decrease in absorbance) / Fluo (fluorescence multiplied by 2 relative to substrate-free control): The symbol “+” means good growth/decolourization/significant increase in fluorescence; The symbol “+/−” means difficult growth; The symbol “−” means that there is no growth/decolourization/significant increase in fluorescence; conditions: S. epidermidis, substrate 35 mg/l
Experimental: as §1, §2, §3, §4, §5

Acinetobacter baumanii = tested on: Acinetobacter baumanii; parameters: key to RED (substrate reduced or not): RED indicates whether the substrate is reduced (Y) or not (N); RED indicates whether the substrate is reduced (Y) or not (N); key to Decol (substrate decolourized, decrease in absorbance) / Fluo (fluorescence multiplied by 2 relative to substrate-free control) / Co (growth, absorbance at 660 nm): The symbol “+” means good growth/decolourization/significant increase in fluorescence; The symbol “+/−” means difficult growth; The symbol “−” means that there is no growth/decolourization/significant increase in fluorescence; conditions: A. baumannii, substrate 35 mg/l
Experimental: as §1, §2, §3, §4, §5

Enterococcus faecalis = tested on: Enterococcus faecalis; parameters: key to RED (substrate reduced or not): RED indicates whether the substrate is reduced (Y) or not (N); RED indicates whether the substrate is reduced (Y) or not (N); key to Decol (substrate decolourized, decrease in absorbance) / Fluo (fluorescence multiplied by 2 relative to substrate-free control) / Co (growth, absorbance at 660 nm): The symbol “+” means good growth/decolourization/significant increase in fluorescence; The symbol “+/−” means difficult growth; The symbol “−” means that there is no growth/decolourization/significant increase in fluorescence; conditions: E. faecalis, substrate 35 mg/l
Experimental: as §1, §2, §3, §4, §5

Compound | Co (growth, absorbance at 660 nm) (Candida albicans) | Decol (substrate decolourized, decrease in absorbance) (Candida albicans) | Fluo (fluorescence multiplied by 2 relative to substrate-free control) (Candida albicans) | RED (substrate reduced or not) (Candida albicans) | Co (growth, absorbance at 660 nm) (Cronobacter muytjensii) | Decol (substrate decolourized, decrease in absorbance) (Cronobacter muytjensii) | Fluo (fluorescence multiplied by 2 relative to substrate-free control) (Cronobacter muytjensii) | RED (substrate reduced or not) (Cronobacter muytjensii) | Co (growth, absorbance at 660 nm) (Escherichia coli) | Decol (substrate decolourized, decrease in absorbance) (Escherichia coli) | Fluo (fluorescence multiplied by 2 relative to substrate-free control) (Escherichia coli) | RED (substrate reduced or not) (Escherichia coli) | Co (growth, absorbance at 660 nm) (Geotrichum candidum) | Decol (substrate decolourized, decrease in absorbance) (Geotrichum candidum) | Fluo (fluorescence multiplied by 2 relative to substrate-free control) (Geotrichum candidum) | RED (substrate reduced or not) (Geotrichum candidum) | Co (growth, absorbance at 660 nm) (Kocuria rosea) | Decol (substrate decolourized, decrease in absorbance) (Kocuria rosea) | Fluo (fluorescence multiplied by 2 relative to substrate-free control) (Kocuria rosea) | Co (growth, absorbance at 660 nm) (Pseudomonas aeruginosa) | further results
O=C(O)c1ccccc1/N=N/c1cc(Br)c(O)c(Br)c1 [2-(4-hydroxy-3,5-dibromophenylazo)benzoic acid] | + | − | − | N | + | + | + | Y | + | − | + | Y | + | − | + | Y | − | − | − | + | Decol (substrate decolourized, decrease in absorbance) (Pseudomonas aeruginosa): −; Fluo (fluorescence multiplied by 2 relative to substrate-free control) (Pseudomonas aeruginosa): −; RED (substrate reduced or not) (Pseudomonas aeruginosa): N; Co (growth, absorbance at 660 nm) (Staphylococcus aureus): +; Decol (substrate decolourized, decrease in absorbance) (Staphylococcus aureus): +; Fluo (fluorescence multiplied by 2 relative to substrate-free control) (Staphylococcus aureus): +; RED (substrate reduced or not) (Staphylococcus aureus): Y; Co (growth, absorbance at 660 nm) [1]: +; Decol (substrate decolourized, decrease in absorbance) [1]: +/−; Fluo (fluorescence multiplied by 2 relative to substrate-free control) [1]: +; RED (substrate reduced or not) [1]: Y; Co (growth, absorbance at 660 nm) (Acinetobacter baumanii): +; Decol (substrate decolourized, decrease in absorbance) (Acinetobacter baumanii): −; Fluo (fluorescence multiplied by 2 relative to substrate-free control) (Acinetobacter baumanii): +; RED (substrate reduced or not) (Acinetobacter baumanii): Y; Co (growth, absorbance at 660 nm) (Enterococcus faecalis): +; Decol (substrate decolourized, decrease in absorbance) (Enterococcus faecalis): +; Fluo (fluorescence multiplied by 2 relative to substrate-free control) (Enterococcus faecalis): +; RED (substrate reduced or not) (Enterococcus faecalis): Y
O=S(=O)([O-])c1ccc2c(N=Nc3ccccc3)c(O)c(S(=O)(=O)[O-])cc2c1.[Na+].[Na+] [Ponceau 2G] | + | − | − | N | + | − | − | N | + | − | − | N | +/− | − | − | N | − | − | − | + | Decol (substrate decolourized, decrease in absorbance) (Pseudomonas aeruginosa): −; Fluo (fluorescence multiplied by 2 relative to substrate-free control) (Pseudomonas aeruginosa): −; RED (substrate reduced or not) (Pseudomonas aeruginosa): N; Co (growth, absorbance at 660 nm) (Staphylococcus aureus): +; Decol (substrate decolourized, decrease in absorbance) (Staphylococcus aureus): −; Fluo (fluorescence multiplied by 2 relative to substrate-free control) (Staphylococcus aureus): −; RED (substrate reduced or not) (Staphylococcus aureus): N; Co (growth, absorbance at 660 nm) [1]: +; Decol (substrate decolourized, decrease in absorbance) [1]: −; Fluo (fluorescence multiplied by 2 relative to substrate-free control) [1]: −; RED (substrate reduced or not) [1]: N; Co (growth, absorbance at 660 nm) (Acinetobacter baumanii): +; Decol (substrate decolourized, decrease in absorbance) (Acinetobacter baumanii): −; Fluo (fluorescence multiplied by 2 relative to substrate-free control) (Acinetobacter baumanii): −; RED (substrate reduced or not) (Acinetobacter baumanii): N; Co (growth, absorbance at 660 nm) (Enterococcus faecalis): +; Decol (substrate decolourized, decrease in absorbance) (Enterococcus faecalis): +; Fluo (fluorescence multiplied by 2 relative to substrate-free control) (Enterococcus faecalis): −; RED (substrate reduced or not) (Enterococcus faecalis): Y
